Results taken from patent publication US20240199651A1, “ANTIBACTERIAL COMPOUNDS” (JANSSEN SCIENCES IRELAND UNLIMITED COMPANY, priority 2021, published 2024).
Like-named read-outs stand apart in the source and are kept apart here.

Columns and labels:
[1] = system: Mycobacterium tuberculosis strain EH4.0 expressing green-fluorescent protein (GFP); test: microbe, parasite or virus in culture; assay type: cell-based
[2] = Mitochondrial toxicity (Glu/Gal) assay; assay type: cell-based; details: for Score: mitotoxicity score, Glu/Gal assay; for Δ IC50, glu/IC50, gal: ratio IC50 glu / IC50 gal
Source text: (§1) The compounds of the invention/examples may have advantages associated with in vitro potency, kill kinetics (i.e. bactericidal effect) in vitro, PK properties, food effect, safety/toxicity (including liver toxicity, coagulation, 5-LO oxygenase), metabolic stability, Ames II negativity, MNT negativity, aqueous based solubility (and ability to formulate) and/or cardiovascular effect e.g. on animals (e.g. anesthetized guinea pig). Data that is generated/calculated may be obtained using standard methods/assays, for instance that are available in the literature or which may be performed by a supplier (e.g. Microsomal Stability Assay—Cyprotex, Mitochondrial toxicity (Glu/Gal) assay—Cyprotex, as well as literature CYP cocktail inhibition assays). GSH can be measured (reactive metabolites, glucuronidation) to observe if a dihydrodiol is observed by LCMS (fragmentation ions), which would correspond to a dihydroxylation on the core heterocycle.

[3] = Chemical stability testing (LCMS); assay type: physicochemical; details: 30 µM
Experimental: • Add 3 μl of a 10 mM DMSO stock solution to 1 ml of the following solvents in a 1.5 ml HPLC vial. • DMSO (reference solution) • H2O/Acetonitril 1/1 (assay solution) • 0.1N HCl/Acetonitril 1/1 (assay solution) • Mix well, […] LCMS • Compare the chromatograms of the two assay solutions with the reference solution and report the additional peaks as degradation peaks

[4] = LM CLint (microsomal stability), human; assay type: in vitro ADME; details: liver microsomes, read-out: CLint Microsomes, Human (h)
Source text: as §1
(§2) CLint Microsomes (μL/Min/Mg) in Dog (d), Human (h), Mouse (m) and Rat (r) (all at 1 μm)

[5] = LM CLint (microsomal stability), mouse; assay type: in vitro ADME; details: microsomes, 1 μm, read-out: CLint Microsomes, Mouse (m)
Source text: as §1, §2

[6] = Test 1 (and/or Test 2), M. tuberculosis
[7] = galactose medium (Glu/Gal mitotoxicity assay), read-out: IC50, gal
[8] = glucose medium (Glu/Gal mitotoxicity assay), read-out: IC50, glu
[9] = Mycobacterium tuberculosis, Test 1 (and/or Test 2), M. tuberculosis

Structure (SMILES)	IC50 [2, 7]	IC50 [2, 8]	IC50 ([2]; read-out: IC50, gal)	IC50 ([2]; read-out: IC50, glu)	also measured
CCc1nc2ncc(Cl)cn2c1C(=O)NCc1ccc(-c2nc3n(n2)CCN(S(=O)(=O)C(F)(F)F)C3)c(F)c1 [Compound 4]	> 100 µM	> 100 µM	–	–	pIC50 [1, 6]: 7.90
O=C(NCc1ccc(-c2nc3n(n2)CCN(S(=O)(=O)C(F)(F)F)C3)c(F)c1)c1c(C(F)(F)F)nc2ccccn12 [Compound 6]	–	–	134 µM	88.5 µM	Score [2]: [x]1; Δ IC50, glu/IC50, gal [2]: 0.66; chemical stability, % by LCMS ([3]; 48 h): 100%; chemical stability, % by LCMS ([3]; 48 h, pH 1.6): 100%
CCc1nc2nc(C)c(Cl)cn2c1C(=O)NCc1ccc(-c2nc3n(n2)CCN(S(=O)(=O)C(F)(F)F)C3)cc1 [Compound 8]	41.7 µM	51.2 µM	–	–	pIC50 [1, 6]: 7.58; Score [2]: [x]1; Δ IC50, glu/IC50, gal [2]: 1.23
CCc1nc2cc(OC)c(Cl)cn2c1C(=O)NCc1ccc(-c2nc3n(n2)CCN(S(=O)(=O)C(F)(F)F)C3)c(F)c1 [Compound 10]	–	–	> 200 µM	> 200 µM	chemical stability, % by LCMS ([3]; 72 h): 97.03%; chemical stability, % by LCMS ([3]; 72 h, pH 1.6): 100%
CCc1nc2nc(N)c(Cl)cn2c1C(=O)NCc1ccc(-c2nc3n(n2)CCN(S(=O)(=O)C(F)(F)F)C3)c(F)c1 [Compound 12]	–	–	–	–	chemical stability, % by LCMS ([3]; 72 h): 96.14%; chemical stability, % by LCMS ([3]; 72 h, pH 1.6): 97.06%
CCc1nc2cc(NC)c(Cl)cn2c1C(=O)NCc1ccc(-c2nc3n(n2)CCN(S(=O)(=O)C(F)(F)F)C3)c(F)c1 [Compound 13]	–	–	23.5 µM	29.5 µM	IC50 [1, 9]: > 0.5 µM; Score [2]: [x]1; Δ IC50, glu/IC50, gal [2]: 1.25
CCc1nc2cc(N)c(Cl)cn2c1C(=O)NCc1ccc(-c2nc3n(n2)CCN(S(=O)(=O)C(F)(F)F)C3)c(F)c1 [Compound 14]	–	–	–	–	chemical stability, % by LCMS ([3]; 72 h): 100%; chemical stability, % by LCMS ([3]; 72 h, pH 1.6): 100%
CCc1nc2ccc(Cl)cn2c1C(=O)NCc1cnc(-c2nc3n(n2)CCN(S(=O)(=O)C(F)(F)F)C3)c(F)c1 [Compound 15]	–	–	> 200 µM	> 200 µM	microsomal CLint at 1 µM [4]: 16.2 µL/min/mg; microsomal CLint at 1 µM [5]: 50.6 µL/min/mg; chemical stability, % by LCMS ([3]; 72 h): 97.03%; chemical stability, % by LCMS ([3]; 72 h, pH 1.6): 97.49%
CCc1nc2nc3c(cn2c1C(=O)NCc1ccc(-c2nc4n(n2)CCN(S(=O)(=O)C(F)(F)F)C4)c(F)c1)CCOC3 [Compound 18]	–	–	184 µM	> 200 µM	microsomal CLint at 1 µM [4]: 20.1 µL/min/mg; microsomal CLint at 1 µM [5]: 36.9 µL/min/mg; Score [2]: [x]1; Δ IC50, glu/IC50, gal [2]: >1.09
CCc1nc2cc(Cl)c(C)cn2c1C(=O)NCc1ccc(-c2nc3n(n2)CCN(S(=O)(=O)C(F)(F)F)C3)c(F)c1 [Compound 19]	> 25 µM	> 25 µM	–	–	IC50 [1, 9]: 0.331 µM
CCc1nc2ncc(C)cn2c1C(=O)NC1(c2ccc(-c3nc4n(n3)CCN(S(=O)(=O)C(F)(F)F)C4)cc2)CC1 [Compound 68]	–	–	> 100 µM	> 100 µM	IC50 [1, 9]: > 0.501 µM
CCc1nc2ncc(C)cn2c1C(=O)NCc1cccc(Cc2nc3n(n2)CCN(S(=O)(=O)C(F)(F)F)C3)c1 [Compound 71]	–	–	> 200 µM	> 200 µM	IC50 [1, 9]: > 0.501 µM
CCc1nc2ncc(C)cn2c1C(=O)NCc1coc(-c2nc3n(n2)CCN(S(=O)(=O)C(F)(F)F)C3)n1 [Compound 72]	–	–	> 200 µM	> 200 µM	IC50 [1, 9]: > 0.501 µM
CCc1nc2ncc(C)cn2c1C(=O)NCc1ccc(-c2nn3c(c2C)CN(S(=O)(=O)C(F)(F)F)CC3)cc1 [Compound 85]	30.1 µM	> 200 µM	–	–	AC50 [1, 6]: 0.018 µM; Score [2]: [x]3; Δ IC50, glu/IC50, gal [2]: >6.65
CCc1nc2ncc(C)cn2c1C(=O)NCc1ccc(-c2nc3n(c2C)CCN(S(=O)(=O)C(F)(F)F)C3)cc1 [Compound 86]	–	–	> 100 µM	> 100 µM	AC50 [1, 9]: 0.03 µM
CCc1nc2ncc(C)cn2c1C(=O)NCc1ccc(-c2nn3c(c2C)CN(S(=O)(=O)C(F)(F)F)CC3)c(F)c1 [Compound 87]	25.4 µM	85.8 µM	–	–	AC50 [1]: 0.036 µM; Δ IC50, glu/IC50, gal [2]: 3.38
CCc1nc2ncc(C)cn2c1C(=O)NCc1ccc(-c2nn3c(c2OC)CN(S(=O)(=O)C(F)(F)F)CC3)cc1 [Compound 88]	–	–	–	–	AC50 [1, 6]: 0.00866 µM
CCc1nc2ncc(C)cn2c1C(=O)NCc1cccc(-c2cnn3c2CN(S(=O)(=O)C(F)(F)F)CC3)c1 [Compound 92]	–	–	133 µM	195 µM	AC50 [1, 9]: > 0.5 µM; Score [2]: [x]1; Δ IC50, glu/IC50, gal [2]: 1.47
O=C(NCc1ccc(-c2cc3n(n2)CCN(S(=O)(=O)C(F)(F)F)C3)cc1)c1c(C2CC2)nc2ncc(Cl)cn12 [Compound 104]	> 50 µM	> 50 µM	–	–	AC50 [1, 9]: 0.11 µM
Cc1cnc2nc(C3CC3)c(C(=O)NCc3ccc(-c4cc5n(n4)CCN(S(=O)(=O)C(C)C)C5)cc3)n2c1 [Compound 106]	–	–	> 100 µM	> 100 µM	microsomal CLint at 1 µM [4]: 111 µL/min/mg; microsomal CLint at 1 µM [5]: 83.4 µL/min/mg
Cc1cnc2nc(C3CC3)c(C(=O)NCc3ccc(-c4cn5c(n4)CN(S(=O)(=O)C(F)(F)F)CC5)c(F)c3)n2c1 [Compound 112]	> 100 µM	> 100 µM	–	–	AC50 [1, 9]: 0.0095 µM
Cc1cnc2nc(C(F)(F)F)c(C(=O)NCc3ccc(-c4nc5n(n4)CCN(S(=O)(=O)C(F)(F)F)C5)cc3)n2c1 [Compound 113]	> 100 µM	> 100 µM	–	–	AC50 [1, 9]: 0.032 µM
Cc1cnc2nc(C(F)(F)F)c(C(=O)NCc3ccc(-c4cc5n(n4)CCN(S(=O)(=O)C(F)(F)F)C5)cc3)n2c1 [Compound 114]	> 12.5 µM	> 12.5 µM	–	–	AC50 [1, 9]: 0.0098 µM
O=C(NCc1ccc(-c2nc3n(n2)CCN(S(=O)(=O)C(F)(F)F)C3)c(F)c1)c1c(C2CC2)nc2ccccn12 [Compound 123]	> 100 µM	> 100 µM	–	–	AC50 [1, 9]: 0.018 µM
Cc1cnc2nc(C3CC3)c(C(=O)NCc3cnc(-c4cc5n(n4)CCN(S(=O)(=O)C(F)(F)F)C5)c(F)c3)n2c1 [Compound 125]	> 200 µM	> 200 µM	–	–	–
CCc1nc2ncc(C)cn2c1C(=O)NCc1ccc(-c2cc3n(n2)CCN(S(=O)(=O)C(F)(F)F)C3)cn1 [Compound 126]	> 200 µM	> 200 µM	–	–	–
Cc1cnc2nc(C3CC3)c(C(=O)NCc3ccc(-c4cc5n(n4)CCN(S(=O)(=O)C(F)(F)F)C5)nc3)n2c1 [Compound 128]	> 200 µM	> 200 µM	–	–	–
CCc1nc2ncc(C)cn2c1C(=O)NCc1cnc(-c2cc3n(n2)CCN(S(=O)(=O)C(F)(F)F)C3)c(C)c1 [Compound 129]	–	–	> 200 µM	> 200 µM	microsomal CLint at 1 µM [4]: 50.4 µL/min/mg; microsomal CLint at 1 µM [5]: 29.4 µL/min/mg
Cc1cnc2nc(C3CC3)c(C(=O)NCc3cnc(-c4nc5n(n4)CCN(S(=O)(=O)C(F)(F)F)C5)c(F)c3)n2c1 [Compound 130]	> 200 µM	> 200 µM	–	–	–
CCc1nc2ncc(C)cn2c1C(=O)NCc1cnc(-c2cc3n(n2)CCN(S(=O)(=O)C(F)(F)F)C3)nc1 [Compound 131]	> 100 µM	> 100 µM	–	–	–
